In patent US20040127519A1 (Pharmacia Corporation, priority 2002, published 2004):

Molecular target: Recombinant MAPKAPK2 (Homo sapiens, UniProt P49137)
Assay: Determination of MK-2 IC50 (HSP-peptide phosphorylation, anion exchange resin capture assay)
Type: biochemical
Protocol: The phosphorylation of HSP-peptide ([…]) by MAPKAPK2 was measured using an anion exchange resin capture assay method. […] The reaction was terminated and [γ^33P]ATP was removed from solution by the addition of 150 μl of AG 1×8 ion exchange resin in 900 mM sodium formate pH 3.0. A 50 μl aliquot of head volume was removed from the quenched reaction mixture and added to a 96-well plate, 150 μl of Microscint-40 (Packard) was added and the amount of phosphorylated-peptide was determined. Allow the Microscint to sit in the plates for 60 minutes prior to counting.
Compounds are evaluated as potential inhibitors of the MK2 kinase by measuring their effects on MK2 phosphorylation of the peptide substrate. Compounds may be screened initially at two concentrations prior to determination of IC50 values. Screening results are expressed as percent inhibition at the concentrations of compound tested. For IC50 value determinations, compounds are tested at six concentrations in ten-fold serial dilutions with each concentration tested in triplicate. Results are expressed as IC50 values in micromolar. The assay is performed at a final concentration of 2% DMSO.

[1] = MK-2 Avg. IC50, Table 2, tricyclic aminocyanopyridine MK-2 inhibitors
[2] = MK-2 Avg. IC50, Table I, aminocyanopyridine MK-2 inhibitors

Recombinant MAPKAPK2, sequence (P49137 whole entry, species assumed): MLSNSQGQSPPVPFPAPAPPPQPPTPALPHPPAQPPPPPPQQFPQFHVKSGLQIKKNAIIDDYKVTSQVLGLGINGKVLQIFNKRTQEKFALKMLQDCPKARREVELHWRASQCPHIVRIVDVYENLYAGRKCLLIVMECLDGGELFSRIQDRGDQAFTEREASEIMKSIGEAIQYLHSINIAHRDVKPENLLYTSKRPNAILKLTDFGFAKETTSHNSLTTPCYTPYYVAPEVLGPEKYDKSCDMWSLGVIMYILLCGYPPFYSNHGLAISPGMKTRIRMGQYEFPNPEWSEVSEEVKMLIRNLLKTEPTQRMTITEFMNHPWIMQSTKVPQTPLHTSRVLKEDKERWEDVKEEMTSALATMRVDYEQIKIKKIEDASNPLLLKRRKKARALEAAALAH

For N#Cc1c(N)nc2c(c1N)Cc1cccc(F)c1S2 [Example 57], the IC50 [1] was 42.2 µM.
For N#Cc1c(-c2cnc[nH]2)cc(-c2ccc(Cl)cc2)nc1N [Example 69], the IC50 [2] was 42.9 µM.
CCCNc1c(C#N)c(N)nc2c1Cc1cc(OC)c(OC)cc1O2 [Example 50] gave an IC50 [1] of 15.6 µM.
In the case of N#Cc1c(-c2cnc[nH]2)cc(-c2ccc(C(=O)O)cc2)nc1N [Example 30], the IC50 [2] is reported as 8.37 µM.
With N#Cc1c(-c2ccccc2F)cc(-c2cccc(O)c2)nc1N [Example 51] the IC50 [2] was 24.2 µM.
In the case of N#Cc1c(-c2ccco2)cc(-c2c[nH]c3ccccc23)nc1N [Example 102], the IC50 [2] is reported as 87.1 µM.
CC(C)(C)OC(=O)COc1cc2c(cc1OCC(=O)OC(C)(C)C)Oc1nc(N)c(C#N)c(N)c1C2 [Example 45] was tested, and the IC50 [1] was 10.3 µM.
With CCCc1nc(N)c(C#N)c(N)c1C#N [Example 109] the IC50 [2] was 99.8 µM.
For N#Cc1c(-c2ccco2)cc(-c2ccc(O)cc2)nc1N [Example 121], the IC50 [2] was 122 µM.
For N#Cc1c(N)nc2c(c1-c1ccccc1)CCc1n[nH]cc1-2 [Example 7], the IC50 [2] was 2.73 µM.
Work on CC(C)(C)OCC1Cc2c(nc(N)c(C#N)c2N)O1 (stereo not drawn) [Example 141] yielded an IC50 [2] of 167 µM.
In the case of N#Cc1c(-c2ccco2)cc(-c2ccc(-n3ccnc3)cc2)nc1N [Example 120], the IC50 [2] is reported as 121 µM.
For N#Cc1c(-c2ccccc2)cc(-c2cccs2)nc1N [Example 55], the IC50 [2] was 26.9 µM.
With Cc1ccc(-c2cc(-c3ccccc3Cl)c(C#N)c(N)n2)o1 [Example 148] the IC50 [2] was 192 µM.
With COc1ccc2c(c1)Oc1nc(N)c(C#N)c(N)c1C2c1ccccc1F (stereo not drawn) [Example 69] the IC50 [1] was 151 µM.
For N#Cc1c(-c2ccc(C(=O)O)cc2)cc(-c2ccco2)nc1N [Example 92], the IC50 [2] was 59.8 µM.
N#Cc1c(N)nc2ccccc2c1N [Example 73] was tested, and the IC50 [2] was 45.5 µM.
N#Cc1c(-c2ccco2)cc(-c2ccccn2)nc1N [Example 132] was tested, and the IC50 [2] was 149 µM.
With N#Cc1c(N)nc2c(c1-c1ccccc1F)CCc1ccccc1-2 [Example 15] the IC50 [2] was 4.47 µM.
N#Cc1c(N)nc2c(c1N)Cc1cc([N+](=O)[O-])ccc1O2 [Example 60] was tested, and the IC50 [1] was 62.2 µM.
Molecule COc1cc2c(cc1OC)Oc1nc(N)c(C#N)c(NCCN(C)C)c1C2 [Example 63] has an IC50 [1] of 79.1 µM.
N#Cc1c(N)nc2c(c1N)Cc1cccc(OCC(=O)O)c1O2 [Example 62] showed an IC50 [1] of 72.2 µM.
For N#Cc1c(N)nc2c(c1-c1ccc(F)cc1)CCc1n[nH]cc1-2 [Example 42], the IC50 [2] was 12.9 µM.
In the case of C=CCOc1ccc2c(c1)Oc1nc(N)c(C#N)c(N)c1C2 [Example 56], the IC50 [1] is reported as 33.8 µM.
Molecule C=CCOc1cc2c(cc1OCC=C)Oc1nc(N)c(C#N)c(N)c1C2 [Example 43] has an IC50 [1] of 9.6 µM.
Molecule N#Cc1c(-c2cnc[nH]2)cc(-c2ccco2)nc1N [Example 17] has an IC50 [2] of 4.94 µM.
N#Cc1c(N)nc2c(c1N)Cc1cc([N+](=O)[O-])ccc1S2(=O)=O [Example 64] gave an IC50 [1] of 80.8 µM.
COc1ccccc1-c1cc(-c2ccc(O)cc2)nc(N)c1C#N [Example 145] showed an IC50 [2] of 183 µM.
Work on CCNc1c(C#N)c(N)nc2c1Cc1ccc(OCC)cc1O2 [Example 37] yielded an IC50 [1] of 4.76 µM.
N#Cc1c(N)nc2c(c1N)Cc1cc(Br)ccc1O2 [Example 49] showed an IC50 [1] of 15.1 µM.
Molecule N#Cc1c(N)nc2c(c1-c1cccc(C(=O)O)c1)CCc1[nH]ncc1-2 [Example 68] has an IC50 [2] of 41.7 µM.
Cc1cc(Cl)cc2c1Oc1nc(N)c(C#N)c(N)c1C2 [Example 66] was tested, and the IC50 [1] was 136 µM.
Molecule COc1ccc2c(c1)Oc1nc(N)c(C#N)c(N)c1C2 [Example 27] has an IC50 [1] of 1.72 µM.
Molecule N#Cc1c(-c2cccc(F)c2)cc(-c2ccc(O)cc2)nc1N [Example 104] has an IC50 [2] of 96 µM.
With N#Cc1c(N)nc2c(c1-c1ccco1)C1CCC2C1 (stereo not drawn) [Example 122] the IC50 [2] was 122 µM.
Cn1ncc2c1CCc1c-2nc(N)c(C#N)c1-c1ccco1 [Example 57] showed an IC50 [2] of 28.3 µM.
In the case of COc1ccc(-c2cc(-c3cccc(F)c3)c(C#N)c(N)n2)cc1 [Example 107], the IC50 [2] is reported as 97.3 µM.
For N#Cc1c(-c2cnc[nH]2)cc(-c2ccco2)nc1N [Example 21], the IC50 [2] was 5.95 µM.
CC1Cc2n[nH]cc2-c2nc(N)c(C#N)c(-c3ccco3)c21 (stereo not drawn) [Example 59] showed an IC50 [2] of 31.3 µM.
COc1cccc(-c2c(C#N)c(N)nc3c2CCc2[nH]ncc2-3)c1 [Example 56] was tested, and the IC50 [2] was 27.8 µM.
N#Cc1c(N)nc2c(c1N)CC(COC(F)(F)C(F)F)O2 (stereo not drawn) [Example 127] gave an IC50 [2] of 131 µM.
With N#Cc1c(N)nc2c(c1N)Cc1cccc(OCC(=O)O)c1O2 [Example 96] the IC50 [2] was 72.2 µM.
With N#Cc1c(N)nc2c(c1N)CC(CCl)O2 (stereo not drawn) [Example 44] the IC50 [2] was 13.4 µM.
In the case of N#Cc1c(-c2ccco2)cc(-c2ccc(B(O)O)cc2)nc1N [Example 47], the IC50 [2] is reported as 16.7 µM.
For N#Cc1c(N)nc2c(c1N)Cc1cccc([N+](=O)[O-])c1O2 [Example 32], the IC50 [1] was 2.58 µM.
For CCNc1nc2c(c(NCC)c1C#N)Cc1ccc(OCC)cc1O2 [Example 68], the IC50 [1] was 148 µM.
With COc1ccc(-c2cc(-c3ccccc3F)c(C#N)c(N)n2)cc1 [Example 94] the IC50 [2] was 70.4 µM.
N#Cc1c(N)nc2c(c1N)Cc1cc(N)ccc1S2(=O)=O [Example 48] gave an IC50 [1] of 14.4 µM.
In the case of COc1cc(N)c(C#N)c(N)n1 [Example 79], the IC50 [2] is reported as 50.9 µM.
N#Cc1c(N)nc2c(c1N)Cc1ccc(OCCN3CCCC3)cc1O2 [Example 25] showed an IC50 [1] of 1.68 µM.
For N#Cc1c(N)nc2c(c1-c1ccco1)CCc1[nH]ccc1-2 [Example 34], the IC50 [2] was 9.4 µM.
N#Cc1c(-c2ccco2)cc(-c2ccc(Cl)cc2)nc1N [Example 144] was tested, and the IC50 [2] was 182 µM.
Molecule N#Cc1c(-c2ccco2)cc(-c2ccc3c(c2)Nc2ccccc2S3)nc1N [Example 136] has an IC50 [2] of 158 µM.
Molecule N#Cc1c(-c2ccccc2F)cc(-c2ccco2)nc1Nc1ccccc1 [Example 138] has an IC50 [2] of 162 µM.
In the case of N#Cc1c(-c2cnc[nH]2)cc(-c2ccccc2)nc1N [Example 45], the IC50 [2] is reported as 14.2 µM.
For N#Cc1c(N)nc2c(c1-c1ccccc1OC(F)F)CCc1[nH]ncc1-2 [Example 105], the IC50 [2] was 96.1 µM.
Work on N#Cc1c(-c2ccccc2F)cc(-c2ccco2)nc1NCC(=O)O [Example 115] yielded an IC50 [2] of 114 µM.
COc1cc(N)cc2c1Oc1nc(N)c(C#N)c(N)c1C2 [Example 29] gave an IC50 [1] of 1.79 µM.
Work on N#Cc1c(-c2ccccc2F)cc(-c2ccco2)nc1N [Example 13] yielded an IC50 [2] of 4.06 µM.
With N#Cc1c(-c2cnc[nH]2)cc(-c2ccc(O)cc2)nc1N [Example 12] the IC50 [2] was 3.62 µM.
Work on N#Cc1c(N)nc2c(c1-c1ccncc1)CCc1n[nH]cc1-2 [Example 103] yielded an IC50 [2] of 94.3 µM.
With CC(C)(C)NS(=O)(=O)c1ccc(-c2cc(-c3ccccc3)c(C#N)c(N)n2)cc1 [Example 90] the IC50 [2] was 68 µM.
N#Cc1c(N)nc2c(c1N)Cc1cccc(OCCN3CCCC3)c1O2 [Example 59] was tested, and the IC50 [1] was 45.2 µM.
N#Cc1c(-c2ccco2)cc(-c2ccncc2)nc1N [Example 66] was tested, and the IC50 [2] was 39.9 µM.
Molecule N#Cc1c(N)nc2c(c1N)Cc1cccc(OCCO)c1O2 [Example 70] has an IC50 [1] of 154 µM.
With CC(C)(C)NS(=O)(=O)c1ccc(-c2cc(-c3ccccc3F)c(C#N)c(N)n2)cc1 [Example 95] the IC50 [2] was 71.5 µM.
Work on N#Cc1c(-c2ccccc2F)cc(-c2ccoc2)nc1N [Example 49] yielded an IC50 [2] of 17.9 µM.
Work on COc1ccc(Nc2c(C#N)c(N)nc3c2CC(C(F)(F)F)O3)cc1 (stereo not drawn) [Example 63] yielded an IC50 [2] of 36.4 µM.
N#Cc1c(-c2cccc(F)c2)cc(-c2ccco2)nc1N [Example 139] gave an IC50 [2] of 164 µM.
Work on CN(C)CCOc1ccc2c(c1)Oc1nc(N)c(C#N)c(N)c1C2 [Example 28] yielded an IC50 [1] of 1.75 µM.
With CSc1cc(N)c(C#N)c(N)n1 [Example 67] the IC50 [2] was 41.6 µM.
With COC(=O)c1cccc(-c2c(C#N)c(N)nc3c2CCc2[nH]ncc2-3)c1 [Example 147] the IC50 [2] was 191 µM.
N#Cc1c(N)nc2c(c1N)Cc1ccc(O)c(O)c1O2 [Example 21] was tested, and the IC50 [1] was 0.857 µM.
Work on N#Cc1c(-c2ccco2)cc(-c2ccc(S(N)(=O)=O)cc2)nc1N [Example 46] yielded an IC50 [2] of 16.1 µM.
N#Cc1c(N)nc2c(c1-c1ccco1)CCc1cc(O)ccc1-2 [Example 10] gave an IC50 [2] of 3.48 µM.
Work on N#Cc1c(-c2ccccc2F)cc(-c2ccc(C(=O)O)cc2)nc1N [Example 25] yielded an IC50 [2] of 6.4 µM.
Work on CS(=O)(=O)Nc1ccc(-c2cc(-c3ccco3)c(C#N)c(N)n2)cc1 [Example 33] yielded an IC50 [2] of 9.27 µM.
For N#Cc1c(N)nc2ccccc2c1C(=O)O [Example 137], the IC50 [2] was 161 µM.
Molecule COc1ccc2c(c1)Cc1c(nc(N)c(C#N)c1N)O2 [Example 58] has an IC50 [1] of 43 µM.
For COc1ccnc(N)c1C#N [Example 91], the IC50 [2] was 69.6 µM.
Work on COc1cc2c(cc1OC)Oc1nc(N)c(C#N)c(NCCN)c1C2 [Example 46] yielded an IC50 [1] of 11.5 µM.
Work on N#Cc1c(N)nc2c(c1N)Cc1ccc(CN3CCCCC3)c(O)c1O2 [Example 42] yielded an IC50 [1] of 8.28 µM.
N#Cc1c(-c2ccccc2F)cc(-c2ccc(O)c(O)c2)nc1N [Example 27] gave an IC50 [2] of 7.54 µM.
N#Cc1c(-c2ccco2)cc(-c2cn[nH]c2)nc1N [Example 39] was tested, and the IC50 [2] was 11.6 µM.
